Patent US10017462B1, “Antimicrobial poly(guanylurea)s” (THE FLORIDA INTERNATIONAL UNIVERSITY BOARD OF TRUSTEES, priority 2018, dated 2018)
Values after ≈ are worked out from the molar mass of the structure shown.

Test system: methicillin-resistant Staphylococcus aureus (MRSA) (ATCC BAA-44)
Assay: MIC assay, broth microdilution with resazurin
Assay type: cell-based
Details: Mueller Hinton broth, 20-44 h at 37° C.
Experimental: Antimicrobial assay antimicrobial activities of the polymers were determined by the minimal inhibitory concentration (MIC) assay. MIC of Mycobacterium smegmatis (ATCC 700084), Shigella flexneri (ATCC 9199), Staphylococcus aureus (ATCC 14775) and methicillin-resistant Staphylococcus aureus (MRSA) (ATCC BAA-44) were determined by the standard broth microdilution method with slight modification. In brief, different bacteria were grown in either Mueller Hinton broth (MHB) or 7H9 broth (M. smegmatis) overnight at 37° C. Next day, the cells were first OD600 adjusted to 0.1 and then further diluted 1:100 in the respective media and 50 μL (˜10^5 CFU) is added to 96 well-microplate wells containing 50 μL serial dilutions of the polymers. The plates were incubated for 20-44 h at 37° C. MIC is defined as the lowest concentration of the polymer that inhibits the visual growth of the bacteria. To aid in determining the visual growth of bacteria, resazurin, a red-ox dye is added to the wells at a final concentration of 0.02% and incubated for 4-8 h at 37° C. In the presence of viable cells, resazurin (blue) is reduced to resorfurin (pink) along with an increase in fluorescence. MIC was calculated as the lowest concentration of the polymer that prevented the color change and reduced the fluorescence (Ex 540, Em 590 nm) by 90% when compared to the control wells containing no inhibitor. […]

O=C(O)c1cn(C2CC2)c2cc(N3CCNCC3)c(F)cc2c1=O [Ciprofloxacin]
MIC MRSA: 20 mg/L (≈ 60.4 µM)
